Experimental data reported in patent US4738979A, “α2 -blocking derivatives of imidazole” (G. D. Searle & Co., priority 1985, dated 1988).

system: bicuculline-induced tonic extension in mice; assay: protection against bicuculline-induced tonic extension in mice; format: in vivo; settings: Mus musculus, iv, 3 hours prior to bicuculline 0.7 mg/kg i.v., read-out: Anticonvulsive effect (versus Bicuculline) (% Protection)
Protocol: In the second study the anti-convulsant effect of the compounds of the present invention was examined in two seizure models; bicuculline-induced tonic extension in mice and 3-mercaptopropionic acid (3-MPA)-induced tonic extension in mice.
In the bicuculline study, the ability of the compounds of the present invention to protect against tonic extension (involving rigidity) was evaluated as follows. Each test compound was administered to a group of ten mice at a dose of 10 mg/kg, 3 hours prior to the i.v. administration of bicuculline (0.7 mg/kg). Anticonvulsant activity in this test is expressed as percentage of animals tested. The results are given in Table II, column 6, and indicate that several compounds display significant anticonvulsive activity in this test. The anticonvulsant effect of the compounds has also been tested with respect to the tonic extension induced by 3-mercaptopropionic acid (120 mg/kg subcutaneously) in mice.

SMILES | responders at 10 mg/kg [%]
CCCC(c1c[nH]cn1)C(c1ccccc1)c1ccccc1 (centres unmarked) [Compound 19, 4(5)-[2-(1,1-diphenyl)pentyl]imidazole] | 40
CCCC(OC)(c1c[nH]cn1)C(c1ccccc1)c1ccccc1 (centres unmarked) [Compound 20, 4(5)-[2-(1,1-diphenyl-2-methoxy)-pentyl]imidazole] | 60
Cc1nc(CC(c2ccccc2)c2ccccc2)c[nH]1 [Compound 25, 4(5)-(2,2-diphenylethyl)-2-methylimidazole] | 10
COC(c1c[nH]c(C)n1)C(c1ccccc1)c1ccccc1 (centres unmarked) [Compound 26] | 10

target: T1, α2 -adrenergic receptors (Rattus norvegicus, UniProt P22909); assay: binding to α2-adrenergic receptors on rat brain homogenates (3H-p. aminoclonidine); settings: 10^-7 M; rat brain homogenates; 0.7 nM 3H-p. aminoclonidine; read-out: % Inhibition of the Specific Binding at 10^-7 M for α2 Recep.
T1 construct: from tissue; host or cells: rat brain homogenates
T1 sequence (P22909 1-465): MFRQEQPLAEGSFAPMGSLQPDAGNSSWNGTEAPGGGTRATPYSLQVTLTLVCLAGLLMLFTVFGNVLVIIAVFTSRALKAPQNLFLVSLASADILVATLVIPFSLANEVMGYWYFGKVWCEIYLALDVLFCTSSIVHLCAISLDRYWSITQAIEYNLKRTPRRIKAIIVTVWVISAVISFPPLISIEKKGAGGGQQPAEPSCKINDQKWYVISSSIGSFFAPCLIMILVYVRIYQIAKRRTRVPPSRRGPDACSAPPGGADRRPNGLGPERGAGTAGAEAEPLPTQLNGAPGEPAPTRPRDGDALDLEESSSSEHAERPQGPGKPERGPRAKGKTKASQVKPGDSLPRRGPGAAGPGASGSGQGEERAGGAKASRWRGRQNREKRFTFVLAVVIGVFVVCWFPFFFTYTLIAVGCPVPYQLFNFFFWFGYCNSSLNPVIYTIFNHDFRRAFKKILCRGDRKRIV
Protocol: (§1) The activity of the compounds according to the invention with respect to binding of the α-adrenergic receptors was determined in vitro according to a method deriving from the works of B. R. Rouot et al., Life Sci., 25, 769 (1979) and of D. U'Prichard et al., Mol. Pharmacol., 13, 454 (1977). This method consists in measuring the binding to the receptor on rat brain homogenates, by marking by means of a specific tritriated ligand placed in competition with the product to be tested.
(§2) In the presenct case the binding to the α1 -adrenergic receptors was measured by means of 1.6 nM of ^3 H-WB 4101 and the binding to the α2 -adrenergic receptors by means of 0.7 nM of ^3 H-p. aminoclonidine, the non-specific binding being determined by 1,000 nM of phentolamine. The results are given in Table II, column 3, and are expressed in terms of percentage of inhibition of the specific binding of 10^-7 molar compound concentration.
(§3) (2) The specific binding is the total binding less the nonspecific
(§4) binding. The total binding is the binding in the absence of nonradioactiv
(§5) drug. The nonspecific binding is the binding in the presence of 1,000 nM
(§6) of phentolamine. The products of the invention are tested at a
(§7) concentration of 10^-7 molar.

SMILES | inhibition at 0.1 µM [%]
CCCC(c1c[nH]cn1)C(c1ccccc1)c1ccccc1 (centres unmarked) [Compound 19, 4(5)-[2-(1,1-diphenyl)pentyl]imidazole] | 15
CCCC(OC)(c1c[nH]cn1)C(c1ccccc1)c1ccccc1 (centres unmarked) [Compound 20, 4(5)-[2-(1,1-diphenyl-2-methoxy)-pentyl]imidazole] | 6
Cc1nc(CC(c2ccccc2)c2ccccc2)c[nH]1 [Compound 25, 4(5)-(2,2-diphenylethyl)-2-methylimidazole] | 3
COC(c1c[nH]c(C)n1)C(c1ccccc1)c1ccccc1 (centres unmarked) [Compound 26] | 2
O=C(O)c1ccccc1C(Cc1c[nH]cn1)c1ccccc1 (centres unmarked) [Compound 30] | 1
COC(=O)c1ccccc1C(Cc1c[nH]cn1)c1ccccc1 (centres unmarked) [Compound 31] | 20

system: not listed separately; assay: acute toxicity after oral administration to mice (LD50); settings: mouse, in vivo, 15 days mortality
Protocol: The acute toxicity of the compounds of the present invention was studied after oral administration to mice. The products to be tested, suspended in a 1% tragacanth gum mucilage, were administered by means of an intragastric probe to groups of three male mice which had fasted since the preceding day. The doses tested are a function of the effect observed and can vary from 3,000 to 3 mg/kg or less. The mortality was recorded for 15 days. The lethal dose for 50% of the animals (LD50) was calculated according to the method of J. Litchfield and F. Wilcoxon, J. Pharmacol. Exp. Ther., 96, 99 (1949) and expressed in mg/kg. The effect of the products on the behaviour of the animals is observed until 5 to 6 hours after the treatment indicated above and after 24 hours, using a method derived from that of S. Irwin, described by R. A. Turner, Screening Methods in Pharmacology, Chapter 3, pages 22-34, Academic Press, 1965. If anomalies are noted, the observation is prolonged and smaller doses are tested.

SMILES | LD50 at 360 h [mg/kg]
CCCC(c1c[nH]cn1)C(c1ccccc1)c1ccccc1 (centres unmarked) [Compound 19, 4(5)-[2-(1,1-diphenyl)pentyl]imidazole] | 350
CCCC(OC)(c1c[nH]cn1)C(c1ccccc1)c1ccccc1 (centres unmarked) [Compound 20, 4(5)-[2-(1,1-diphenyl-2-methoxy)-pentyl]imidazole] | > 300
COC(c1c[nH]c(C)n1)C(c1ccccc1)c1ccccc1 (centres unmarked) [Compound 26] | 350
O=C(O)c1ccccc1C(Cc1c[nH]cn1)c1ccccc1 (centres unmarked) [Compound 30] | > 300

system: α2 adrenergic receptors of the central nervous system; assay: inhibition of the antihypertensive action of clonidine in spontaneously hypertensive rats (SHR); format: in vivo, rat; settings: 1 mg/kg p.o., clonidine 50 μg/kg s.c.
Protocol: In the first study, carried out upon unanaesthetized spontaneously hypertensive rats (SHR rats), the ability of the compounds of the present invention to inhibit the antihypertensive action of clonidine was determined.
The antihypertensive activity of clonidine results from an interaction with α2 adrenergic receptors of the central nervous system, i.e., central antihypertensive actions.
In this test, two groups of SHR rats are utilized as follows. In the first group, prior to subcutaneous administration of clonidine (50 μg/kg), the SHR rats are treated with the compound to be tested (1 mg/kg p.o.) dissolved in a saline vehicle. The second group (control group) of SHR rats are treated with the saline vehicle only, prior to subcutaneous administration of clonidine.
The arterial pressure is measured in the region of the median coccygeal artery according to the method of J. Roba, A. F. DeSchaepdrijver, Exp. Anim., 4, 147-162 (1971).
The results of this assay summarized in Table II, column 5, are expressed as a percentage of inhibition of the effect of clonidine.

SMILES | α2 Antagonist (% Inhibition of the Antihypertension of Clonidine) [%]
CCCC(c1c[nH]cn1)C(c1ccccc1)c1ccccc1 (centres unmarked) [Compound 19, 4(5)-[2-(1,1-diphenyl)pentyl]imidazole] | 75
CCCC(OC)(c1c[nH]cn1)C(c1ccccc1)c1ccccc1 (centres unmarked) [Compound 20, 4(5)-[2-(1,1-diphenyl-2-methoxy)-pentyl]imidazole] | 62
Cc1nc(CC(c2ccccc2)c2ccccc2)c[nH]1 [Compound 25, 4(5)-(2,2-diphenylethyl)-2-methylimidazole] | 87

system: α1 -adrenergic receptors; assay: binding to α1-adrenergic receptors on rat brain homogenates (3H-WB 4101); settings: 1.6 nM 3H-WB 4101
Protocol: as §1, §2, §3, §4, §5, §6, §7

SMILES | % Inhibition of the Specific Binding at 10^-7 M for α1 Recep. [%]
CCCC(c1c[nH]cn1)C(c1ccccc1)c1ccccc1 (centres unmarked) [Compound 19, 4(5)-[2-(1,1-diphenyl)pentyl]imidazole] | 4
CCCC(OC)(c1c[nH]cn1)C(c1ccccc1)c1ccccc1 (centres unmarked) [Compound 20, 4(5)-[2-(1,1-diphenyl-2-methoxy)-pentyl]imidazole] | 0
Cc1nc(CC(c2ccccc2)c2ccccc2)c[nH]1 [Compound 25, 4(5)-(2,2-diphenylethyl)-2-methylimidazole] | 0
COC(c1c[nH]c(C)n1)C(c1ccccc1)c1ccccc1 (centres unmarked) [Compound 26] | 1
O=C(O)c1ccccc1C(Cc1c[nH]cn1)c1ccccc1 (centres unmarked) [Compound 30] | 12
COC(=O)c1ccccc1C(Cc1c[nH]cn1)c1ccccc1 (centres unmarked) [Compound 31] | 13
